Experimental data published in patent publication US20080118475A1, “Model System for Testing the Efficacy of Pharmaceutical Preparation on Inflammatory Processes in the Nervous System” (KEYNEUROTEK AG, priority 2004, published 2008).
“Also recorded” adds a separate entry of the source.

Test system: organo-typical cultures of the hippocampus
Test: Inflammation-provoked degeneration of organo-typical hippocampal slice cultures, propidium iodide fluorescence
Type: cell-based, Sprague-Dawley rats
Settings: for degeneration of the tissue / neurons (propidium iodide staining), cytokin in combination with LPS: cytokin plus LPS (200 μm/ml [sic] in the source, 200 ηg/ml), 48 hours, M-CSF 10 ηg/ml, IFNy 30 ηg/ml, GM-CSF 1 ηg/ml; for protection of the neural tissue against degeneration (propidium iodide staining): reagent incubated over 48 hours together with LPS (200 ηg/ml) and GM-CSF (1 ηg/ml)
Description: For the preparation of organo-typical cultures of the hippocampus, 7 to 8 day-old Sprague-Dawley rats were used. From the isolated hippocampus of these animals ca. 400 μm thick slices were prepared, each approximately comprising 20 cell layers. […] The slices were able to be cultured in 6-pore culture plates for up to 3 weeks through changing the medium below the membrane.
All the incubations were carried out in a medium that contained a minimum of 50% of essential medium/HEPES, 25% of Hank's balanced salt solution and 25% of heat-inactivated horse serum.
The degeneration of the tissue was rendered visible by means of a propidium iodide-fluorescence of the cells, which, because of the injury sustained, could no longer prevent, […], diffusion into the cell nucleus and staining of the DNA. Consequently, the red fluorescence above a threshold value was evaluated as the signal for the degeneration of cells. The degree of degeneration per slice was expressed as the percentage of the total surface that the red values lay above the threshold.
Here, both reagents were incubated over 48 hours with LPS and GM-CSF. Thus, for working in this assay, both steroidal as well as non-steroidal reagents were used.
Organo-typical cultures were incubated with LPS either alone or in combination with the pro-inflammatory cytokins GM-CSF and M-CSF over 48 hours. The injury to the tissue (cell mortality) was established by means of propidium iodide staining (A) and quantified by means of an automated picture analysis (B).

GM-CSF: Granulocyte Macrophage Colony-Stimulating Factor, pro-inflammatory cytokin
degeneration of the tissue / neurons (propidium iodide staining), cytokin in combination with LPS: dramatic degeneration of neurons; also recorded: maximum injury
degeneration / injury of the tissue (propidium iodide staining), substance alone (incubated alone over 48 hours): did not lead to any detectable injury

IFNy: pro-inflammatory cytokin that activates the microglia and can induce MHC expression
degeneration of the tissue / neurons (propidium iodide staining), cytokin in combination with LPS: very strong degeneration of the tissue

CC(=O)Oc1ccccc1C(=O)O [acetyl salicylic acid, reference compound]
protection of the neural tissue against degeneration (propidium iodide staining): complete protection of the neural tissue; also recorded: protected

CC(C)Cc1ccc(C(C)C(=O)O)cc1 (stereo not drawn) [iboprufen, reference compound]
protection of the neural tissue against degeneration (propidium iodide staining): protective activity

B1: M-CSF: pro-inflammatory cytokin that activates microglia (protein, UniProt P09603 33-554, looked up)
Macrophage colony-stimulating …: EEVSEYCSHMIGSGHLQSLQRLIDSQMETSCQITFEFVDQEQLKDPVCYLKKAFLLVQDIMEDTMRFRDNTPNAIAIVQLQELSLRLKSCFTKDYEEHDKACVRTFYETPLQLLEKVKNVFNETKNLLDKDWNIFSKNCNNSFAECSSQDVVTKPDCNCLYPKAIPSSDPASVSPHQPLAPSMAPVAGLTWEDSEGTEGSSLLPGEQPLHTVDPGSAKQRPPRSTCQSFEPPETPVVKDSTIGGSPQPRPSVGAFNPGMEDILDSAMGTNWVPEEASGEASEIPVPQGTELSPSRPGGGSMQTEPARPSNFLSASSPLPASAKGQQPADVTGTALPRVGPVRPTGQDWNHTPQKTDHPSALLRDPPEPGSPRISSLRPQGLSNPSTLSAQPQLSRSHSSGSVLPLGELEGRRSTRDRRSPAEPEGGPASEGAARPLPRFNSVPLTDTGHERQSEGSFSPQLQESVFHLLVPSVILVLLAVGGLLFYRWRRRSHQEPQRADSPLEQPEGSPLTQDDRQVELPV
degeneration of the tissue / neurons (propidium iodide staining), cytokin in combination with LPS: dramatic degeneration of neurons; also recorded: less precipitous
